This is an account of results in patent US10954253B2, “1,2-dihydro-3H-pyrazolo[3,4-d]pyrimidin-3-one derivative as Wee1 inhibitor” (SHIJIAZHUANG SAGACITY NEW DRUG DEVELOPMENT CO., LTD., priority 2017, dated 2021).

Broadly, the bioavailability is dose-corrected exposure relative to a reference, in per cent. As a reminder, the solubility is how much of the substance goes into solution per volume. What is called AUC(0-t) is the area under the concentration-time curve up to a stated or last time point. Low values mean less exposure, high ones more exposure. In general, Cmax refers to the peak of the concentration-time curve. As a reminder, the Tmax is the time from dosing to the highest level. Usually IC50 stands for the midpoint of a concentration-inhibition curve. Low readings indicate greater potency, high ones weaker potency.

Converted amounts (≈) assume the structure as drawn. Where two headings read alike, the source gives them in different places.

The nature of series [1]: Pharmacokinetic evaluation in BALB/c mice after intravenous and oral administration. The format is in vivo. The following applies: mouse, plasma, BALB/c mice (female), single intravenous injection and oral administration; for clearance: read-out: Clearance rate; for AUC: read-out: Concentration integral AUC; for half-life: read-out: Half-life T1/2 (converted); for bioavailability: read-out: bioavailability F. The method, then: Experimental objective: pharmacokinetics evaluation of the compound in BALB/c nude mice.
The rodent pharmacological characteristics of the compound after intravenous administration and oral administration were tested by a standard protocol, the candidate compound in the experiment was formulated into a clear solution, and the mice were administered by a single intravenous injection and oral administration. The intravenous and oral vehicles are a certain proportion of aqueous hydroxypropyl 3-cyclodextrin or physiological saline solution.

Series [2] can be described thus: Thermodynamic solubility determination. The class given is physicochemical. The following applies: for solubility at 24 h: buffer, 22 °C, aqueous buffer, thermodynamic from solid. The method, then: No less than 2 mg sample powder was weighted in a Whatman miniuniprep vial. If the experiment required to test the thermodynamic solubility of the sample in multiple buffer solutions, then separate vial was required for each test.
[…] After addition of the buffer, the Whatman filter cap of the miniuniprep is mounted and pressed until it was above the liquid level to allow the filter to contact with the buffer solution during shaking. The solubility sample was vortexed for 2 minutes. And the solution phenomenon was recorded. Then the vial was shaked at room temperature (about 22 to 25° C.) for 24 hours at a speed of 550 rpm. And the Whatman Miniunipreps filter cap was pressed to bottom to obtain the filtrate of the solubility solution of the sample. All sample vials should conduct filtration for the insoluble matter before and after and osmotic phenomenon. The […] was diluted 50 times to obtain a sample dilution.
Three UV standard solutions were injected from low to high concentrations into HPLC, and then dilution and supernatant of the test compounds were injected. The sample was injected and tested twice. Integration was conducted to the UV peaks. The standard curve was established and the thermodynamic solubility of the sample was calculated.

Series [3] can be described thus: Tissue distribution (PK) in BALB/c nude mice bearing human colon cancer LoVo xenografts. The format is in vivo. The following applies: mouse, LoVo xenograft mice, oral 40 mg/kg twice a day for three weeks, after last administration. On the procedure:
(1) In vivo PD study of the compound used on tumors of human colon cancer LoVo cells subcutaneously xenografted to BALB/c nude mice model
Experimental method: the experimental animals used were BALB/c nude mice (provided by Shanghai Xipuer-Beikai Experimental animal CO., Ltd), 6-8 weeks old, weighting 18-22 g.
Human colon cancer LoVo cells, monolayer-cultured in vitro, culturing condition was Ham's F-12 medium supplemented with 10% fetal bovine serum, 100 U/mL penicillin, 100 μg/mL streptomycin and 2 mM glutamine, 37° C., 5% CO2. Conventional digestion treatment passage was done with trypsin-EDTA twice a week. When the cell saturation reached 80%-90%, the cells were collected, counted, and inoculated. 0.1 mL (10×106) of LoVo cells were subcutaneously inoculated into the right back of each nude mouse, and group administration was started when the average tumor volume reached 213 mm^3. The administration mode was oral administration, 40 mg/kg twice a day for three consecutive weeks.
After the last administration of the experiment, a portion of plasma, tumor, intestine, brain, lung, liver and pancreas was collected from the number 1-2 animals after 0.5 h of administration, and quick-froze for PK detection; a portion of plasma, tumor, intestine, brain, lung, liver and pancreas was collected from the number 3-4 animals after 2 h of administration, and quick-froze for PK detection; a portion of plasma, tumor, intestine, brain, lung, liver and pancreas was collected from the number 5-6 animals after 8 h of administration, and quick-froze for PK detection. The tumor, intestine, brain, lung, liver and pancreas were weighted separately and added 9 times volumes of homogenate MeOH/15 mM PBS (1:2, v:v) for homogenization. 20 μL sample was added into 300 μL of the stop buffer including internal standard for protein precipitation, and shaked to mix well. The mixture was centrifuged at 13,000 rpm for 10 minutes at 20-25° C., and 3 μL of the supernatant was taken for LCMS analysis.
Background: Xenograft models place foreign cells or tissue in a host animal.

For the next series, the target named is Wee1 (Homo sapiens (Human), UniProt P30291). In words: In vitro enzymatic inhibitory activity (33P-ATP filter-binding kinase assay, MBP substrate). The class given is biochemical. The following applies: Wee-1 150 nM, MBP 20 μM. In short, it runs like this: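 Wee1 at 150 nM with 20 μM MBP substrate in pH 7.5 HEPES buffer (10 mM MgCl2, 2 mM DTT, 1% DMSO) was preincubated 20 min at RT with compounds in a 10-point 3-fold dilution series. The reaction was started with ^33P-ATP and run 2 h at RT. Kinase activity was measured by filter binding.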

The mark [4] stands for this setting: pH 6.5, shaken 24 hours at room temperature, read-out: Solubility (μM) pH 6.5.
Where [5] appears, read: pH 7.4, shaken 24 hours at room temperature, read-out: Solubility (μM) pH 7.4.

Chain of Wee1 (P30291 whole entry): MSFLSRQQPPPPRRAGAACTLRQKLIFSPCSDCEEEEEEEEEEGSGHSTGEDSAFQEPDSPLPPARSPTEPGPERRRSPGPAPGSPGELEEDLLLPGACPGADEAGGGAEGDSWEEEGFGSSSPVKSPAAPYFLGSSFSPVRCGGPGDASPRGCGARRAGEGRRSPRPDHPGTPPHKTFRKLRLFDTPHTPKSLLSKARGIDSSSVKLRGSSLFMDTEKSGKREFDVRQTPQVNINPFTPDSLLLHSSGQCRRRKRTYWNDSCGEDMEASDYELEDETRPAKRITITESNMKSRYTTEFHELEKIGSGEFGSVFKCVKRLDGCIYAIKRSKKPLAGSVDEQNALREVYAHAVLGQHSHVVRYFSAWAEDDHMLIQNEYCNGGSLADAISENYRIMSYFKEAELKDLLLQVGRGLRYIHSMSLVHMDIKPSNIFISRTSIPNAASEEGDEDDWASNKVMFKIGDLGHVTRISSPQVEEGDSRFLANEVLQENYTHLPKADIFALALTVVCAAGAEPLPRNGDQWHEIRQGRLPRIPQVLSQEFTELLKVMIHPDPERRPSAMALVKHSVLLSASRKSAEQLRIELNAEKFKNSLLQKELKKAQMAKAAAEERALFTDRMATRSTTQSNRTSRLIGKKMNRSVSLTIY

Consider `C=CCn1c(=O)c2cnc(Nc3ccc(N4CCN(C)CC4)cc3)nc2n1-c1cccc(C(C)(C)O)n1` [AZD1775, reference compound], for which, in series [1], the clearance is 85.7 mL/min/kg. For the same molecule, in series [1], the AUC came to 1.2 µM·h. In series [1], the half-life is 0.25 h. Also, the bioavailability in series [1] amounted to 31%. Further, the solubility at 24 h in series [2] (setting [4]) was 434 µM (≈ 217 µg/mL); in series [2] (setting [5]), 68.8 µM (≈ 34.4 µg/mL). The area under the curve AUC(0-t) amounted to 225 µM·h in series [3] (Colon); 117 µM·h in series [3] (liver); 36.5 µM·h in series [3] (lung); 55.5 µM·h in series [3] (pancreas); 6.97 µM·h in series [3] (plasma); 15.3 µM·h in series [3] (tumer (tumor)). Also, the Cmax is 238 µM in series [3] (Colon); 38.1 µM in series [3] (liver); 17.2 µM in series [3] (lung); 35.6 µM in series [3] (pancreas); 3.07 µM in series [3] (plasma); 3.85 µM in series [3] (tumer (tumor)). Further, the time to peak (Tmax) turned out to be 0.5 h in series [3] (Colon); 0.5 h in series [3] (liver); 0.5 h in series [3] (lung); 0.5 h in series [3] (pancreas); 0.5 h in series [3] (plasma); 2 h in series [3] (tumer (tumor)).
In the case of `C=CCn1c(=O)c2cnc(Nc3ccc(N4CCC5(CCN(C)CC5)CC4)cc3)nc2n1-c1cccc(C(=O)N(C)C)n1` [Embodiment 15, 6-(2-allyl-6-((4-(9-methyl-3,9-diazaspiro[5.5]undecan-3-yl)phenyl)amino)-3-oxo-2,3-dihydro-1H-pyrazolo[3,4-d]pyrimidin-1-yl)-N,N-dimethylpicolinamide], in series [1], the clearance turned out to be 57.1 mL/min/kg, the AUC came out at 1.73 µM·h, the half-life is 1.7 h and the bioavailability stood at 35.3%. The same molecule gave an IC50 on Wee1 of 31.5 nM.
For the molecule `C=CCn1c(=O)c2cnc(Nc3ccc(N4CCC5(CCN(C)CC5)CC4)cc3)nc2n1-c1cccc(C(C)(C)O)n1` [Embodiment 29, 2-allyl-1-(6-(2-hydroxypropan-2-yl)pyridin-2-yl)-6-((4-(9-methyl-3,9-diazaspiro[5.5]undecan-3-yl)phenyl)amino)-1H-pyrazolo[3,4-d]pyrimidin-3(2H)-one], in series [1], the clearance worked out at 51 mL/min/kg, the AUC amounted to 2.15 µM·h, the half-life is 1.49 h and the bioavailability is 32.4%. On Wee1, this molecule returned an IC50 of 13.4 nM. Besides, the solubility at 24 h in series [2] (setting [4]) came out at 1470 µM (≈ 835 µg/mL). In addition, the solubility at 24 h in series [2] (setting [5]) is 1050 µM (≈ 595 µg/mL). Further, the solubility in water entry in series [2] (in words, compared to AZD1775, pH=6.5 and pH=7.4) was “excellent solubility in water”.
The molecule `C=CCn1c(=O)c2cnc(Nc3ccc(N4CCC5(CCN(C(C)=O)CC5)CC4)cc3)nc2n1-c1cccc(C(C)(C)O)n1` [Embodiment 30, 6-((4-(9-acetyl-3,9-diazaspiro[5.5]undecan-3-yl)phenyl)amino)-2-allyl-1-(6-(2-hydroxypropan-2-yl)pyridin-2-yl)-1H-pyrazolo[3,4-d]pyrimidin-3(2H)-one] yielded an IC50 at Wee1 of 58.8 nM. Further, the AUC(0-t) was found to be 2.12 µM·h in series [3] (Brain); 402 µM·h in series [3] (Colon); 257 µM·h in series [3] (liver); 74.7 µM·h in series [3] (lung); 253 µM·h in series [3] (pancreas); 14.2 µM·h in series [3] (plasma). The same molecule returned an area under the curve AUC(0-t) in series [3] (tumer (tumor)) of 37.3 µM·h. The peak concentration (Cmax) in series [3] (Brain) is 0.959 µM; in series [3] (Colon) it was 135 µM; in series [3] (liver) it was 67.7 µM; in series [3] (lung), 14.6 µM; in series [3] (pancreas) it was 49.3 µM; in series [3] (plasma), 4.27 µM. The molecule further yielded a Cmax in series [3] (tumer (tumor)) of 5.42 µM. The Tmax was determined as 0.5 h in series [3] (Brain); 0.5 h in series [3] (Colon); 2 h in series [3] (liver); 2 h in series [3] (lung); 2 h in series [3] (pancreas); 2 h in series [3] (plasma). In addition, the Tmax in series [3] (tumer (tumor)) is 8 h.
With `C=CCn1c(=O)c2cnc(Nc3ccc(N4CCC5(CCN(C)CC5)CC4)cc3)nc2n1-c1cccc(C2(F)COC2)n1` [Embodiment 43, 2-allyl-1-(6-(3-fluorooxetan-3-yl)pyridin-2-yl)-6-((4-(9-methyl-3,9-diazaspiro[5.5]undecan-3-yl)phenyl)amino)-1H-pyrazolo[3,4-d]pyrimidin-3(2H)-one], in series [1], the clearance is 23 mL/min/kg, the AUC came out at 5.59 µM·h, the half-life was 1.81 h and the bioavailability turned out to be 45.1%. The half-maximal inhibitory concentration (IC50) on Wee1 worked out at 12.1 nM.
Regarding `C=CCn1c(=O)c2cnc(Nc3ccc(N4CCC5(CCN(C)CC5)CC4)cc3)nc2n1-c1cccc(N2CCNC2=O)n1` [Embodiment 58, 2-allyl-6-((4(9-methyl-3,9-diazaspiro[5.5]undecan-3-yl)phenyl)amino)-1-(6-(2-oxo-1-imidazolidinyl)pyridin-2-yl)-1H-pyrazolo[3,4-d]pyrimidin-3(2H)-one], the concentration for half-maximal inhibition (IC50) on Wee1 was determined as 73 nM. That is a double-digit nanomolar value.
Still for that read-out and setting: then `C=CCn1c(=O)c2cnc(Nc3ccc(N4CCC5(CCN(C)CC5)CC4)cc3)nc2n1-c1cccc(P(C)(C)=O)n1` [Embodiment 59, 2-allyl-1-(6-(dimethylphosphory)pyridin-2-yl)-6-((4-(9-methyl-3,9-diazaspiro[5.5]undecan-3-yl)phenyl)amino)-1H-pyrazolo[3,4-d]pyrimidin-3(2H)-one], with 22.6 nM; and `C=CCn1c(=O)c2cnc(Nc3ccc(N4CCC5(CCN(CCF)CC5)CC4)cc3)nc2n1-c1cccc(C(C)(C)O)n1` [Embodiment 60], with 14.8 nM; and `C=CCn1c(=O)c2cnc(Nc3ccc(N4CCC5(CCN(CC(F)F)CC5)CC4)cc3)nc2n1-c1cccc(C(C)(C)O)n1` [Embodiment 61], with 15.7 nM.
As for `C=CCn1c(=O)c2cnc(Nc3ccc(N4CCC5(CCN(CCC#N)CC5)CC4)cc3)nc2n1-c1cccc(C(C)(C)O)n1` [Embodiment 62, 3-(9-(4((2-allyl-1(6-(2-hydroxypropan-2-yl)pyridin-2-yl)-3-oxo-2,3-dihydro-1H-pyrazolo[3,4-d]pyrimidin-6-yl)amino)phenyl)-3,9-diazaspiro[5.5]undecan-3-yl)propionitrile], on Wee1, the IC50 was 36.1 nM.
